# Laboratory results published in patent US20230390326A1, “COMPOSITION COMPRISING CATIONIC SUBSTANCE, AND USE FOR SAME” (SUNGKWANG MEDICAL FOUNDATION, priority 2020, published 2023).
# Peptide text beside a SMILES is read from it. * marks the point of attachment. Cbz = O=C(OCc1ccccc1)*
# Key:
# [1] = test system: perforin protein; test: Western blot of perforin protein in cultured NK cells; assay type: cell-based; settings: NK cells treated with MG132 to prevent intracellular protein degradation
# Procedure: Protein extracts from NK cells were separated using 10% SDS-PAGE, and transferred to a polyvinylidene difluoride amersham Biosciences membrane for 90 minutes at the voltage of 120 V. The membrane was blocked in 3% bovine serum albumin (BSA)-containing tris-buffered saline-Tween [TBST; 0.2 M NaCl, 0.1% Tween-20, and 10 mM Tris (pH 7.4)] for 1 hour. The blocked membrane was incubated with a rabbit polyclonal anti-Perforin antibody (1:1000; ab180773, abcam) or a rabbit monoclonal anti-GAPDH antibody (1:1000; […], Cell signaling). After incubation, the membrane was incubated with anti-rabbit polyclonal IgG (1:5000; #7074, Cell Signaling Technology) for 1 hour at room temperature. After each step, the membrane was washed several times using TBST and bound antibodies were detected using an enhanced chemiluminescence detection system (Thermo Fisher Scientific Biosciences) according to manufacturer instructions In order to determine whether […] increases the amount of intracellular perforin, the NK cells of Example 1 were treated with 5 μg/ml of polyethylenimine, and cultured over time (0 hour, 3 hour, 6 hour, 12 hours, 24 hours, or 48 hours), and then Western blotting was performed on the cultured NK cells to identify the amount of granzyme B and perforin protein. […]
# [2] = test system: triple negative breast cancer cell line MDA_MB231; test: In vitro assay of inducing activity of natural killer cells (CFSE-7AAD assay, apoptosis of target cells); assay type: cell-based; settings: NK cells cultured 48 hours with the substance, then mixed with MDA_MB231 at E:T 10:1 for 4 hours; target only 1.32, NK cells only 21.36
# Procedure: Green fluorescence-labeled MDA MB 231 cells and NK cells were put into a 1.5 ml eppendorf tube in respective ratios, mixed, and reacted in a 37° C., CO2 5% incubator for 4 hours. After the reaction was over, the cells were stained with 7AAD (Invitrogen A1310) for 20 minutes and fixed. Through flow cytometry, the mixed cells were divided into two cell populations according to the presence or absence of green fluorescence, and the percentage of dead cells was measured and compared by group to analyze the activity.
# In order to confirm the ability of […] to induce the activity of NK cells according to molecular weight and type, the NK cells of Example 1 were cultured for 48 hours after mixing with various molecular weights and types of polyethylenimine or with a control group.
# Next, the cultured NK cells were washed, and re-suspended in a fresh culture medium. Thereafter, the NK cells and triple negative breast cancer cell line MDA_MB231 were mixed in an effector (E):target (T) ratio of 10:1 and cultured for 4 hours. Finally, the degree of apoptosis of the target cells in the cultured cells was quantitatively analyzed using the CFSE-7AAD assay.
Compound,amount of perforin protein [1],degree of apoptosis of target cells [2]
CC(C)C[C@@H](C=O)NC(=O)[C@H](CC(C)C)NC(=O)[C@H](CC(C)C)NC(=O)OCc1ccccc1 [MG132] (Cbz-Leu-Leu-Leu-aldehyde),increased,
Protamine,,25.31
